Test results published in publication PMC12040169 (PLOS Biology, 2025).

Assay: in vitro
Conditions: human, hela cells, % viability

SMILES | viability at 28.5 h, 10 µM [%]
COC(=O)CCc1ccc(S(=O)(=O)N2CCCN(Cc3cc(F)c(F)c(F)c3)CC2)cc1 [CBK062998] | 103
Cc1cc2ncc3c(n2n1)NC(c1ccc(Cl)cc1Cl)NC3=O (centres unmarked) [CBK291167] | 90.8
c1cnc2[nH]c(C3CCOCC3)c(CN3CCSCC3)c2c1 [CBK284688] | 89.5
O=C(C(c1ccccc1)c1ccccc1)N1CCC2(CCNC2)C1 (centres unmarked) [CBK156729C] | 92.3
O=C(c1cc(F)c(F)cc1F)N1CCC2(CCCN(Cc3cc(=O)[nH]c(=O)[nH]3)C2)C1 (centres unmarked) [CBK132010] | 101
COc1ccc(C(=O)N[C@H]2C[C@H]3C(=O)Nc4ccccc4C(=O)N3C2)cc1 [CBK289355] | 84.7
COc1ccc(C(C)C)cc1-c1cncc(NCC(c2cccnc2)N(C)C)n1 (centres unmarked) [CBK037132] | 110
O=C(Nc1c[nH]c(=O)[nH]c1=O)c1ccc(Oc2ccc(C(=O)Nc3c[nH]c(=O)[nH]c3=O)cc2)cc1 [CBK261184] | 108
CC(C)Cn1cnc(S(=O)(=O)N2CCC(Cc3ccccc3)CC2)c1 [CBK306273] | 92.3
CCC(C)(C)c1ccc(S(=O)(=O)N2CCN(Cc3c(C)nn(C)c3C)CC2)cc1 [CBK062835] | 97.2
Cc1ccc(S(=O)(=O)N2CCN(c3nc(NC(C)c4ccccc4)c4ccccc4n3)CC2)cc1 (centres unmarked) [CBK266448] | 106
OCC1CCCN(Cc2c(C3CCCC3)[nH]c3ncccc23)C1 (centres unmarked) [CBK285332] | 96.1
CCCn1c(SC(C)C(=O)N2CCOCC2)nc2ccc(Br)cc2c1=O (centres unmarked) [CBK305020] | 92.2
CC(C)CNC(=S)N[C@H]1CO[C@H]2[C@@H]1OC[C@@H]2Nc1nccc(C(C)(C)C)n1 [CBK289523] | 90.9
Cn1nc(C(=O)NCCSc2n[nH]c(=O)[nH]c2=O)c2ccccc2c1=O [CBK297501] | 79.1
O=C(Oc1cccc2cccnc12)c1ccc(Br)o1 [CBK019461] | 89.4
N#CCCN1CCC2(CC1)NCCc1c2[nH]c2ccccc12 [CBK039788] | 89
Cc1cc(C)nc(NC(=N)NC2Cc3ccccc3C2)n1 [CBK287863] | 43.4
CCn1cc(NC(=O)NC2CCN(c3ncccc3C#N)CC2)c(C)n1 [CBK307213] | 93.1
Cc1ccc2c(c1)C(=O)NCC1(CCN(C(=O)c3ccco3)CC1)O2 [CBK282894] | 100
Cc1c(C(=O)C2=C(O)C(=O)N(Cc3cccnc3)C2c2ccncc2)cnn1-c1ccccc1 (centres unmarked) [CBK233899] | 114
Cc1c(CN(C)CC(=O)Nc2ccc(Br)cc2Cl)cnn1C [CBK304214] | 86

SMILES | viability at 28.5 h, 10 µM [%]
O=C(COc1cccc(Cl)c1)N/N=C\c1ccc(C(=O)O)cc1 [CBK262293] | 102
CCCOc1ccc(C(N)CC(=O)O)cc1 (centres unmarked) [CBK261360] | 93.5
CC(C)(C)CNc1ccc(S(=O)(=O)N2CCOC2=O)cc1 [CBK028347] | 113
FC(F)(F)c1ccc(OCCNc2ccccc2)nc1 [CBK115828] | 101
COc1ccc(C(NC(=O)C2CCN(C(=O)OC(C)C)CC2)c2ccccc2C)cn1 (centres unmarked) [CBK059704] | 101
O=C(CCN1CCN2CCCCC2C1)N1c2ccccc2Sc2ccc(Cl)cc21 (centres unmarked) [CBK278257F] | 86.3
CCn1nc(C)c(-c2cncn2CC(C)N2CCC(C)CC2)c1C (centres unmarked) [CBK281593] | 103
Cc1ccc(C(=O)O)cc1NC(=O)c1ncn(-c2ccccc2)n1 [CBK269181] | 114
Cc1onc(-c2ccccc2Cl)c1C(=O)N(Cc1nc(-c2ccccc2)no1)C1CCCCC1 [CBK268790] | 108
CCOc1ncccc1C(=O)N(Cc1nnc(-c2ccc(Cl)cc2)o1)C1CC1 [CBK296934] | 96.3
Cc1cnc2[nH]c(C(F)(F)F)c(CN3CCN(C)CC3)c2c1 [CBK284765] | 92.3
CCC(O)c1nc(CCSC)nn1-c1cc(=O)n(C)c2ccccc12 (centres unmarked) [CBK307711] | 90.5
O=C(NCCc1cccs1)Nc1cc(Cl)nc(Cl)c1 [CBK043762] | 87.2
CCOC(=O)C1CCN(S(=O)(=O)c2ccccc2)CC1 [CBK051091] | 107
CCCc1c(C(=O)NCCCN(C)C)cnn1-c1cc(Cl)cc(Cl)c1 [CBK107376] | 89.3
COc1ccc(OCC(=O)Nc2ccc3oc(-c4ccc(OC)c(Br)c4)nc3c2)cc1 [CBK263913] | 99.4
O=C(/C=C(\c1ccccc1)n1cncn1)c1ccc(Cl)cc1 [CBK262089] | 90.7
c1csc(CN2CCNCC2)c1 [CBK027324] | 105
O=C(O)c1cc(NC(=O)C2CC2)cc(C(=O)O)c1 [CBK268564] | 94.3
Cc1ccc(CC(=O)N2CCCC2c2n[nH]cc2-c2ccncc2)cc1 (centres unmarked) [CBK283424] | 106
CC(=O)Nc1ccc(S(=O)(=O)N2CCN(c3ccc([N+](=O)[O-])c(NC4C5CC6CC(C5)CC4C6)c3)CC2)cc1 (centres unmarked) [CBK268802] | 90.5
CN1C(=O)CC2(C1=O)C(=O)N(CC(=O)O)c1ccc(Cl)cc12 (centres unmarked) [CBK076107] | 98.8

SMILES | viability at 28.5 h, 10 µM [%]
CCN(CC)C(=O)C1CCCN(C(=O)Nc2ccc3c(c2)OCCO3)C1 (centres unmarked) [CBK156135] | 92.3
CC(=O)Nc1cc(I)cc(C(=O)O)c1 [CBK026452G] | 104
CC(C)n1cc(CN2CCNC(=O)C2c2ccccc2C(F)(F)F)nn1 (centres unmarked) [CBK304732] | 91.6
CN1CCN(C(=O)c2cccc(-c3ncc(OCC(F)(F)F)nc3N)c2)CC1 [CBK145196] | 91.3
C=CCNc1nccnc1-c1ccncc1 [CBK036845] | 90.7
O=C(NC(=S)Nc1cccc(-c2nc3cc(Cl)ccc3o2)c1)c1ccccc1Br [CBK263973] | 95.8
COc1cc(S(=O)(=O)Nc2ccc(CC(=O)O)cc2)ccc1Cl [CBK287019] | 107
Cc1cccc(CNc2nccnc2-c2cccc(Cl)c2)c1 [CBK037527] | 109
C[N+](C)(C)CCCCOC(c1ccccc1)c1ccccc1 [CBK261076I] | 94.1
FC(F)(F)Oc1ccc(-c2cc(Nc3ccc(N4CCOCC4)cc3)ncn2)cc1 [CBK090934] | 88.9
CC1CCc2c(sc(NC(=O)c3cnccn3)c2C(N)=O)C1 (centres unmarked) [CBK265466] | 90.7
O=C1NC2=C(C(=O)N(CC3CCCO3)C2)C(c2ccccc2)N1 (centres unmarked) [CBK283494] | 100
COc1cccc(CC(=O)N2CCCC2c2cc(Nc3nc(C)cc(C)n3)cc(C)n2)c1 (centres unmarked) [CBK285999] | 90.5
Brc1ccc2c(c1)COC1(CN3CCC1CC3)O2 (centres unmarked) [CBK105268] | 107
Cn1c2ccccc2c2nnc(NCCCCO)nc21 [CBK023366] | 98.8
N#Cc1c(-c2ccccc2)noc1C/C=N/O [CBK007357] | 87.7
O=C(NC1CCCCC1)c1csc(-c2ccncc2)n1 [CBK288591] | 64.2
CC(C)Cc1ccc(C(CC(=O)O)C(=O)O)cc1 (centres unmarked) [CBK286703] | 109
O=c1cc(N2CCN(CC3CCOC3)CC2)c(-c2ccccc2)n[nH]1 (centres unmarked) [CBK306957] | 91.5
Nc1ncnc2[nH]c(SCc3nc4ccc(I)cc4c(=O)n3-c3ccccc3)nc12 [CBK267174] | 96.2
CC(C)(C)c1csc(NC(=O)C2CCCCC2)n1 [CBK058720] | 98.1
Cc1cc(C)n2ncc(C(=O)NCC(c3cccs3)N3CCCC3)c2n1 (centres unmarked) [CBK305675] | 85.3

SMILES | viability at 28.5 h, 10 µM [%]
Cn1c(=O)n(CC(=O)NCc2cccs2)c2cccnc21 [CBK283907] | 90.3
C=CCc1cc(C)cc(C)c1OCCN1CCN(C)CC1 [CBK269672C] | 101
O=C(Nc1ccc(Cc2ccncc2)cc1)c1ccc(-c2cc3ccccc3oc2=O)cc1 [CBK268952] | 121
CC(C)c1ccc(C(C)NC(=O)Cn2cccc(C(=O)Nc3ccc(F)cc3)c2=O)cc1 (centres unmarked) [CBK286043] | 89.3
c1ccc(N2CCN(c3cncc(-c4ccc5ccccc5c4)n3)CC2)nc1 [CBK066104] | 100
Cc1nnc2sc(-c3ccncc3)nn12 [CBK269553] | 84.6
Cc1ccc(C(=O)N(Cc2ccncc2)C2CCCCC2)cc1C [CBK085386] | 97.9
Cn1c(=O)c2c(-c3ccccc3)onc2n(C)c1=O [CBK023569] | 85
CN(CCc1cn[nH]c1)C(=O)CCc1ccc(Cl)cc1 [CBK283183] | 91.1
O=C1NC(Nc2ccc(SCCN3CCOCC3)cc2)c2ccccc21 (centres unmarked) [CBK010123] | 93.6
Oc1nsnc1-c1ccccc1 [CBK026014] | 95
O=C1COc2ccc(S(=O)(=O)NCc3ccccc3)cc2N1 [CBK270156] | 93.7
CCOC(=O)c1ccoc1CN1CCCC1c1ccsc1 (centres unmarked) [CBK304878] | 86.7
c1c(CC2CCCCC2)nnn1[C@H]1CO[C@H]2[C@@H]1OC[C@@H]2NCC1CC1 [CBK289511] | 99.1
COc1cc(NC(=O)c2cc([N+](=O)[O-])ccc2N2CCN(C)CC2)c2ncccc2c1 [CBK263034] | 90
O=C(Nc1ccc2ncsc2c1)C1COc2ccccc2O1 (centres unmarked) [CBK287750] | 95.6
Cc1cc(C=O)c(C)n1-c1ccc(Oc2ccc([N+](=O)[O-])cn2)cc1 [CBK264167] | 99.9
O=S(=O)(N[C@H]1CO[C@H]2[C@@H]1OC[C@@H]2n1cc(-c2ccccn2)nn1)c1cccs1 [CBK289508] | 88.7
c1cnc2[nH]c(C3CCCC3)c(CN3CCOCC3)c2c1 [CBK285337] | 77.5
Cc1nn(C)c(C)c1CN(C)C(=O)C(C)Cn1cc(Cl)cn1 (centres unmarked) [CBK282187] | 92.8
Cc1noc(C)c1CC(=O)NCC(C)(C)N1CCCCC1 [CBK281863] | 90.3
COC(=O)CN1C(=O)S/C(=C/c2ccc(OCc3cccc(C(=O)O)c3)c(Cl)c2)C1=O [CBK265262] | 90.2

Same assay, conditions: human, hela cells, % viability, bulk resorufin, single well

SMILES | viability at 28.5 h, 10 µM [%]
CCOC(=O)N1CCC2(CC1)OCc1cc(C#N)ccc1O2 [CBK131678] | 87
